From ChEMBL document CHEMBL1833811, “Design, synthesis and structure-activity relationship of novel [3.3.1] bicyclic sulfonamide-pyrazoles as potent γ-secretase inhibitors” (Bioorg Med Chem Lett, 2011)

Assays:
[1] = Ratio of drug uptake in brain to plasma of wild type FVB mouse; type: ADME; conditions: brain and plasma, read-out: BPR
[2] = Oral bioavailability in wild type FVB mouse; type: ADME, organism-based; conditions: in vivo

Row | Structure (SMILES) | Kp [1] | bioavailability [2] [%]
1 | Cc1noc(C2CC3Cc4[nH]ncc4C(C2)N3S(=O)(=O)c2ccc(Cl)cc2)n1 (single isomer, unassigned) | 0.08 | 
2 | O=S(=O)(c1ccc(C(F)(F)F)nc1)N1C2Cc3[nH]ncc3C1CC(c1ccc(F)cc1)C2 (single isomer, unassigned) | 0.3 | 
3 | O=S(=O)(c1ccc(Cl)cc1)N1C2CCCC1c1cn[nH]c1C2 (single isomer, unassigned) |  | 2
